Data on seven molecules can be found in patent US5902583A, “Genetic induction of receptors for targeted radiotherapy” (priority 1997, dated 1999).

Entries after “also recorded” stand apart in the source; their conditions may differ. Like-named read-outs stand apart in the source and are kept apart here.

One data set deals with SSTR2. The conditions noted are these: cited from earlier work.
The conditions of data set [1]: native somatostatin; cited from earlier work.
The subject of a further data set is murine IL-4 receptor. The conditions noted are these: cited from earlier work.
For another data set, the system named is IL-4 receptor. In words: Radiolabeled IL-4 binding after adenovirus-polylysine-DNA transduction of IL-4 receptor. The conditions noted are these: adenovirus-polylysine-DNA conjugates.
Another data set relates to mGRPr. In words: Binding to murine GRP receptor.
Data set [2] relates to SKOV3.ip1 tumors expressing mGRPr. The experiment in a line: Biodistribution and pharmacokinetics of radiolabeled bombesin analogue in mice bearing i.p. SKOV3.ip1 tumors infected with AdCMVGRPr. Format: in vivo, human SKOV3.ip1 tumors in athymic nude mice. On the procedure:
All biodistribution studies were performed in female Balb/c athymic nude mice obtained at 4-5 weeks of age from Frederick Research Laboratory (Frederick, Md.). The peptide mIP-Des-Met-bombesin(7-13)NH2 was synthesized using solid phase peptide synthesis at the UAB Comprehensive Cancer Center Peptide Synthesis and Analysis Shared Facility and has been described elsewhere. Mice were injected i.p. with 2×10^7 SKOV3.ip1 human ovarian carcinoma cells. Five days following cell inoculation, mice were injected i.p. with 1×10^9 pfu of a recombinant adenoviral vector expressing mGRPr. Animals were then injected i.p. 48 hours later with 2 μCi of [^125 I]-mIP bombesin. Mice were sacrificed at 0.5, 2, 5, 15, 30 min and 1, 4, 8, 12 and 24 hours following peptide injection (n=4-10/group) and the following organs were dissected: blood, heart, lungs, liver, stomach, small intestine, spleen, kidney, skin, bone, muscle, uterus, peritoneal lining and thyroid. In addition, tumor nodules were removed from each mouse. All organs, and tumors were weighed and the activity counted in a gamma counter. The % ID/g for each tissue was calculated except for the thyroid in which only the % ID was determined.
Descriptive statistics were calculated to examine the distribution and variation of time concentration of radiolabeled antibody and peptide, and tissue to blood ratio data (means and standard deviations). Means at each specific time point were calculated from multiple mice data for both tissue concentration and tissue to blood ratios. Mean concentration data (% ID/g) over time was used for pharmacokinetical modeling. The pharmacokinetical parameters were estimated by using the NLIN procedure of Statistical Analysis System programs. Selection of models was based on comparison of Akaike's Information Criterion, the minimization of the model's mean squared error and standard error of the estimated model parameters, and the graphical diagnostics of the model fit.
Four different pharmacokinetic models, including one and two compartment elimination models along with one and two-compartment models with an absorption phase were required to fit the time concentration curves for the peptide. […] For each of these, the elimination t1/2 was calculated along with Cmax and AUC. A one-compartment model with an absorption phase was determined to be the best model for abdominal lining and muscle data. For each of these, the elimination t1/2 values for each compartment were calculated along with Cmax and AUC. A two-compartment model with an absorption phase was the best model for blood, kidney, and small intestine data. For each of these, elimination t1/2 values for each compartment and the absorption t1/2 value was calculated along with Cmax, Tmax and AUC.

Another data set deals with mGRPr expressing cells. The experiment in a line: Internalization and intracellular retention in mGRPr expressing cells. It counts as cell-based, murine.
In data set [3] the test system is murine gastrin releasing peptide receptor (mGRP-R). The experiment in a line: Radiolabeled bombesin binding after adenovirus-polylysine-mediated transfection of GRPr. The conditions noted are these: AdpL, versus uninfected controls. From the text:
Next, gene mediated expression of receptors was applied in the context of inducing expression of a receptor that could be targeted with a radiolabeled peptide and thus employed the gene encoding the murine gastrin releasing peptide receptor (mGRP-R). The first technique utilized the methodology of an adenovirus-polylysine-mediated transfection (AdpL) to accomplish transient gene expression of mGRP-R in human lung cancer cells.

Another data set deals with human IL-4 receptor. The conditions noted are these: murine ligand; cited from earlier work.

As for `C[C@@H](O)[C@@H]1NC(=O)[C@H](CCCCN)NC(=O)[C@@H](Cc2c[nH]c3ccccc23)NC(=O)[C@H](Cc2ccccc2)NC(=O)[C@@H](NC(=O)[C@H](N)Cc2ccccc2)CSSC[C@@H](C(=O)N[C@H](CO)[C@@H](C)O)NC1=O` [Octreotide], the “binding to SSTR2” value in the data set with SSTR2 was “binds with high affinity”.
As to `C[C@H](N)C(=O)NCC(=O)N[C@H]1CSSC[C@@H](C(=O)O)NC(=O)[C@H](CO)NC(=O)[C@H]([C@@H](C)O)NC(=O)[C@H](Cc2ccccc2)NC(=O)[C@H]([C@@H](C)O)NC(=O)[C@H](CCCCN)NC(=O)[C@H](Cc2c[nH]c3ccccc23)NC(=O)[C@H](Cc2ccccc2)NC(=O)[C@H](Cc2ccccc2)NC(=O)[C@H](CC(N)=O)NC(=O)[C@H](CCCCN)NC1=O` [Somatostatin], the plasma half-life entry in data set [1] is listed as “minutes”.
Take “^125 I-labeled IL-4: ^125 I-labeled IL-4”: in the data set with murine IL-4 receptor (^125 I-IL-4, transduced COS-7 cells), the Ka was 10^9 -10^10 M^-1. Besides, the “radiolabeled IL-4 binding to transduced cells” value in the data set on IL-4 receptor is on record as “specific binding”.
Take human IL-4: human IL-4: the “binding to the murine receptor” value in the data set on murine IL-4 receptor (human IL-4) is recorded as “does not exhibit binding”.
In the case of “[^125 I]-mIP-Des-Met^14 -bombesin(7-13)NH2 [[^125 I]-mIP-bombesin]”, the “binding to mGRPr” value in the data set with mGRPr was “high affinity binding”. Further, the “concentration in tumor (highest)” value in [2] (30 sec after injection, 0.5 min) came to 33.6±18.2 % ID/g. Moreover, the “tumor to blood ratio relative to antibody” value in [2] (30 sec, versus e21) was found to be 24.8 fold; in [2] (24 hours, versus e21), 15.4 fold. Besides, the “tumor localization at 4 hours post injection versus [^125 I]-Tyr-bombesin” value in [2] (4 hours post injection) is reported as “much greater”. This molecule also had a concentration in tumor in data set [2] (24 hours after injection) of 2.5±2.8 % ID/g. Also, the AUC in data set [2] (abdominal lining) is 160.9 percent ID × h/g; in [2] (blood), 8.0 percent ID × h/g; in data set [2] (bone), 12.8 percent ID × h/g; in data set [2] (heart), 8.3 percent ID × h/g; in data set [2] (kidney) it was 44.8 percent ID × h/g; in data set [2] (liver), 49.2 percent ID × h/g. The AUC came out at 7.6 percent ID × h/g in data set [2] (lung); 12.4 percent ID × h/g in data set [2] (muscle); 5.9 percent ID × h/g in [2] (skin); 112 percent ID × h/g in data set [2] (small intestine); 71.7 percent ID × h/g in data set [2] (spleen); 172.3 percent ID × h/g in [2] (stomach). Moreover, the values for the AUC in data set [2] (tumor) and in data set [2] (uterus) were 193.1 percent ID × h/g and 182.8 percent ID × h/g, respectively. Also, the Cmax in [2] (abdominal lining) worked out at 47.7 percent ID/g; in data set [2] (blood), 1.5 percent ID/g; in data set [2] (bone), 1.1 percent ID/g; in [2] (heart), 0.9 percent ID/g; in data set [2] (kidney), 15.3 percent ID/g; in [2] (liver), 9.8 percent ID/g. The Cmax was found to be 1.3 percent ID/g in [2] (lung); 3.6 percent ID/g in data set [2] (muscle); 1.0 percent ID/g in data set [2] (skin); 41.7 percent ID/g in [2] (small intestine); 10.9 percent ID/g in data set [2] (spleen); 10.2 percent ID/g in data set [2] (stomach). Besides, the Cmax in data set [2] (tumor) was 25.6 percent ID/g; in data set [2] (uterus), 29.2 percent ID/g. For the same molecule, the t1/2α in data set [2] (abdominal lining) amounted to 0.1 h; in [2] (blood), 0.8 h; in [2] (kidney), 0.4 h; in [2] (muscle), 0.6 h; in [2] (small intestine), 0.6 h. For the same molecule, the t1/2β in data set [2] (abdominal lining) is 6.5 h; in data set [2] (blood), 6.7 h; in data set [2] (bone), 7.9 h; in [2] (heart), 6.6 h; in [2] (kidney), 4.7 h; in [2] (liver), 3.5 h. The t1/2β in data set [2] (lung) was 4.1 h; in [2] (muscle), 7.7 h; in [2] (skin) it was 3.7 h; in data set [2] (small intestine), 8.3 h; in [2] (spleen), 4.6 h; in data set [2] (stomach) it was 11.7 h. Besides, in data set [2] (uterus), the t1/2β is 4.3 h. Moreover, the time to peak (Tmax) in data set [2] (blood) is 0.6 h; in data set [2] (kidney), 0.5 h; in [2] (lung) it was 0.05 h; in data set [2] (skin) it was 0.4 h; in data set [2] (small intestine), 0.3 h; in data set [2] (stomach), 0.05 h. Also, the “tumor to blood ratio” value in data set [2] (level after drop from initial peak and rise) was “about 50”. Also, the “t1/2β (clearance half-life)” value in data set [2] (tumor) came to 5.2 h. The “peak tumor to blood ratio, bombesin analogue relative to antibody” value in [2] (versus e21) turned out to be 12.6 fold. For the same molecule, the “internalization versus [^125 I]-Tyr-bombesin” value with mGRPr expressing cells was “higher internalization”. Further, the “intracellular retention versus [^125 I]-Tyr-bombesin” value with mGRPr expressing cells is “longer intracellular retention”; in the data set on mGRPr expressing cells (listed as modified seven amino acid analogue of bombesin), “longer retention time within cells”.
On to “^125 I-labeled bombesin: ^125 I-labeled bombesin”, for which the “radiolabeled bombesin binding to transduced cells” value in data set [3] is listed as “specific binding; also recorded: successfully demonstrated”.
Consider “Murine IL-4: glycoprotein with an approximate molecular weight of 19 kD”, for which the “binding to the human receptor” value in the data set on human IL-4 receptor was “does not exhibit binding”.
